Results from ChEMBL document CHEMBL1123683 (J Med Chem, 1987).
pIC50: −log10 of the molar value.

Tests used:
[1] = biological target: Prostaglandin G/H synthase 1 (Ovis aries) (UniProt P05979); experiment: Inhibition of microsomal PGH synthase isolated from sheep seminal vesicles (SSV) estimated as rate of oxygen consumption in presence of 500 uM of the compound; set-up: scale not given: the % may be the effect or the level left
[2] = biological target: Prostaglandin G/H synthase 1 (Ovis aries) (UniProt P05979); experiment: Inhibition of microsomal PGH synthase isolated from sheep seminal vesicles (SSV) estimated as rate of oxygen consumption in presence of 100 uM of the compound
[3] = biological target: Prostaglandin G/H synthase 1 (Ovis aries) (UniProt P05979); experiment: Inhibition of PGH synthase in sheep seminal vesicle microsomes
[4] = biological target: Prostaglandin G/H synthase 1 (Ovis aries) (UniProt P05979); experiment: Inhibition of microsomal PGH synthase isolated from sheep seminal vesicles (SSV) estimated as rate of oxygen consumption in presence of 500 uM of the compound; Compound was found to be insoluble
[5] = biological target: Prostaglandin G/H synthase 1 (Ovis aries) (UniProt P05979); conditions: at 500 µM
[6] = biological target: Prostaglandin G/H synthase 1 (Ovis aries) (UniProt P05979); experiment: Inhibition of microsomal PGH synthase isolated from sheep seminal vesicles (SSV) estimated as rate of oxygen consumption in presence of 100 uM of the compound; set-up: scale not given: the % may be the effect or the level left

Chain of Prostaglandin G/H synthase 1 (Ovis aries) (P05979 whole entry, looked up): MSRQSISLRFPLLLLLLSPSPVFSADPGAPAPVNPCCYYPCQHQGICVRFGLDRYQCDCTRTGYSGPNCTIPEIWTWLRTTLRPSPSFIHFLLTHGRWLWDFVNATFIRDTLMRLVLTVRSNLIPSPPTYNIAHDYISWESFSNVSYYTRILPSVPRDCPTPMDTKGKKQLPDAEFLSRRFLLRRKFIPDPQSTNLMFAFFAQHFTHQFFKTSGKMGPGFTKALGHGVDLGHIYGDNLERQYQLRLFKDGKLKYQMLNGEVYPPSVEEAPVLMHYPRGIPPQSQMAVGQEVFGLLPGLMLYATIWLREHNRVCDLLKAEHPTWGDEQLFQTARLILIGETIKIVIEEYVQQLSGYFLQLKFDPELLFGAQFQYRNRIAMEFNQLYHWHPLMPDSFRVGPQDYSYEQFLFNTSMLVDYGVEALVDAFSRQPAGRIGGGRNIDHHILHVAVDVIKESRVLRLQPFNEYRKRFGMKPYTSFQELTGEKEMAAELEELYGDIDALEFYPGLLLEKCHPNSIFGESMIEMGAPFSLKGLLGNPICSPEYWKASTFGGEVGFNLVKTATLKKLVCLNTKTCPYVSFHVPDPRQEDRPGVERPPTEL

Row | Compound | Control [1] | Oxygen consumption rate, % of control [2] [%] | pIC50 [3] | Control [4] | Control [5] [%] | Control [6] [%]
1 | O=C(CCC(=O)Nc1ccc(O)cc1)Nc1ccc(O)cc1 | 27% | 79 | 3.62 | – | – | –
2 | CCCCC(C(=O)Nc1ccc(OC)cc1)C(=O)Nc1ccc(OC)cc1 | – | 102 | – | Insoluble | – | –
3 | CCCCC(C(=O)Nc1ccc(C)cc1)C(=O)Nc1ccc(C)cc1 | – | – | – | – | 97 | –
4 | CCCCC(C(=O)Nc1ccc(O)cc1)C(=O)Nc1ccc(O)cc1 | – | – | 3.54 | – | 36 | 76
5 | O=C(CC(=O)Nc1ccccc1)Nc1ccccc1 | – | – | – | – | 55 | 65
6 | O=C(CCCCC(=O)Nc1ccc(O)cc1)Nc1ccc(O)cc1 | – | – | 3.64 | – | 26 | 67
7 | CCCCC(C(=O)Nc1ccc(O)cc1C)C(=O)Nc1ccc(O)cc1C | 31% | – | 3.82 | – | – | 57
8 | CCCCC(C(=O)Nc1ccccc1)C(=O)Nc1ccccc1 | – | 105 | – | Insoluble | – | –
9 | O=C(CC(=O)Nc1cccc(O)c1)Nc1cccc(O)c1 | – | – | – | – | 86 | –
10 | CCCCC(C(=O)Nc1ccc([N+](=O)[O-])cc1)C(=O)Nc1ccc([N+](=O)[O-])cc1 | Insoluble | – | – | – | – | 126

Next, values leading:

Row | Control [1] | Oxygen consumption rate, % of control [2] [%] | pIC50 [3] | Control [4] | Control [5] [%] | Control [6] [%] | Compound
11 | 88% | – | – | – | – | – | O=C(CC(=O)Nc1ccc([N+](=O)[O-])cc1)Nc1ccc([N+](=O)[O-])cc1
12 | – | 67 | 3.72 | – | 25 | – | O=C(CC(=O)Nc1ccc(O)cc1)Nc1ccc(O)cc1
13 | – | 78 | – | Insoluble | – | – | COc1ccc(NC(=O)CC(=O)Nc2ccc(OC)cc2)cc1
14 | – | – | – | Insoluble | – | 96 | CCCCC(C(=O)Nc1ccc(Cl)cc1)C(=O)Nc1ccc(Cl)cc1
15 | 66% | – | – | – | – | – | Cc1ccc(NC(=O)CC(=O)Nc2ccc(C)cc2)cc1
16 | – | 64 | 3.38 | – | 48 | – | O=C(CC(=O)Nc1ccc(Cl)cc1)Nc1ccc(Cl)cc1
